From the NIST ThermoML archive (doi:10.1021/je101361u)

Test: xn = mol fraction of the nth substance listed
Settings: 101.3 kPa, Liquid, Vibrating tube method

CCOCCOCCOCC [diethylene glycol diethyl ether] + ClCCCl
mass density [kg/m3]
Settings	308.15 K	313.15 K	318.15 K	323.15 K	328.15 K	333.15 K
x2 = 0	–	–	–	877.66	–	–
x2 = 0.0234	–	891.38	886.51	881.62	876.73	871.83
x2 = 0.0504	–	895.82	890.92	886	881.07	876.13
x2 = 0.0751	–	900.01	895.06	890.1	885.15	880.18
x2 = 0.1009	–	904.54	899.56	894.58	889.59	884.59
x2 = 0.1504	–	913.47	908.43	903.37	898.31	893.23
x2 = 0.2	–	923.09	917.97	912.84	907.7	902.54
x2 = 0.2546	–	934.27	929.05	923.83	918.61	913.36
x2 = 0.2999	–	944.04	938.75	933.46	928.16	922.86
x2 = 0.35	–	955.6	950.21	944.83	939.44	934.03
x2 = 0.4006	–	968.06	962.59	957.11	951.61	946.09
x2 = 0.4502	–	981.1	975.52	969.94	964.34	958.72
x2 = 0.5002	1000.88	995.21	989.52	983.83	978.12	972.39
x2 = 0.5499	1016.02	1010.23	1004.42	998.59	992.77	986.94
x2 = 0.6	1032.44	1026.51	1020.6	1014.67	1008.71	1002.74
x2 = 0.65	1050.11	1044.07	1038	1031.92	1025.84	1019.73
x2 = 0.6999	1069.3	1063.11	1056.9	1050.67	1044.44	1038.18
x2 = 0.7492	1089.67	1083.34	1077	1070.63	1064.24	1057.81
x2 = 0.8	1112.94	1106.44	1099.91	1093.36	1086.78	1080.17
x2 = 0.85	1137.96	1131.28	1124.57	1117.84	1111.08	1104.27
x2 = 0.9	1165.64	1158.75	1151.82	1144.87	1137.9	1130.88
x2 = 0.95	1196.36	1189.24	1182.08	1174.86	1167.69	1160.44
x2 = 0.975	1213.1	1205.85	1198.56	1191.23	1183.9	1176.53
